Experimental data as given in ChEMBL document CHEMBL3774317, “Design and synthesis of novel tamoxifen analogues that avoid CYP2D6 metabolism” (Eur J Med Chem, 2016).

Columns and labels:
CCRF-CEM [1] = test: Cytotoxicity against human CCRF-CEM cells assessed as cell growth at 10^-8 M after 48 hrs by SRB assay; format: functional; details: read-out: Activity
[2] = Cytotoxicity against human RPMI8226 cells assessed as cell growth at 10^-5 M after 48 hrs by SRB assay; format: functional; details: RPMI-8226, 48 h, read-out: Activity
NCI-H23 = test: Cytotoxicity against human NCI-H23 cells assessed as cell growth at 10^-5 M after 48 hrs by SRB assay; format: functional; details: NCI-H23, 48 h, read-out: Activity
[3] = Cytotoxicity against human OVCAR3 cells assessed as cell growth at 10^-7 M after 48 hrs by SRB assay; format: functional; details: OVCAR-3, 48 h, read-out: Activity
[4] = Cytotoxicity against human OVCAR4 cells assessed as cell growth at […] after 48 hrs by SRB assay; format: functional; details: OVCAR-4, 48 h, read-out: Activity
786-0 [5] = test: Cytotoxicity against human 786-0 cells assessed as cell growth at 10^-6 M after 48 hrs by SRB assay; format: functional; details: 786-0, 48 h, read-out: Activity
Malme-3M [6] = test: Cytotoxicity against human MALME-3M cells assessed as cell growth at 10^-5 M after 48 hrs by SRB assay; format: functional; details: read-out: Activity
[7] = Cytotoxicity against human SF539 cells assessed as cell growth at 10^-7 M after 48 hrs by SRB assay; format: functional; details: SF-539, 48 h, read-out: Activity
SK-MEL-2 [8] = test: Cytotoxicity against human SK-MEL-2 cells assessed as cell growth at 10^-7 M after 48 hrs by SRB assay; format: functional; details: SK-MEL-2, 48 h, read-out: Activity
[9] = Cytotoxicity against human OVCAR8 cells assessed as cell growth at 10^-5 M after 48 hrs by SRB assay; format: functional; details: OVCAR-8, 48 h, read-out: Activity
T47D = test: Cytotoxicity against human T47D cells assessed as cell growth at 10^-6 M after 48 hrs by SRB assay; format: functional; details: read-out: Activity
786-0 [10] = test: Cytotoxicity against human 786-0 cells assessed as cell growth at 10^-5 M after 48 hrs by SRB assay; format: functional; details: 786-0, 48 h, read-out: Activity
[11] = Cytotoxicity against human SKOV3 cells assessed as cell growth at 10^-8 M after 48 hrs by SRB assay; format: functional; details: SK-OV-3, 48 h, read-out: Activity
NCI-H522 = test: Cytotoxicity against human NCI-H522 cells assessed as cell growth at 10^-8 M after 48 hrs by SRB assay; format: functional; details: NCI-H522, 48 h, read-out: Activity
A549 = test: Cytotoxicity against human A549 cells assessed as cell growth at 10^-5 M after 48 hrs by SRB assay; format: functional; details: A549, 48 h, read-out: Activity
M14 [12] = test: Cytotoxicity against human M14 cells assessed as cell growth at 10^-4 M after 48 hrs by SRB assay; format: functional; details: M14, 48 h, read-out: Activity
[13] = Cytotoxicity against human Caki1 cells assessed as cell growth at 10^-6 M after 48 hrs by SRB assay; format: functional; details: CAKI-1, 48 h, read-out: Activity
KM12 = test: Cytotoxicity against human KM12 cells assessed as cell growth at 0.5 uM after 48 hrs by SRB assay; format: functional; details: KM12, 48 h, read-out: Activity
CCRF-CEM [14] = test: Cytotoxicity against human CCRF-CEM cells assessed as cell growth at 5 nM after 48 hrs by SRB assay; format: functional; details: read-out: Activity
[15] = Cytotoxicity against human OVCAR3 cells assessed as cell growth at 5 nM after 48 hrs by SRB assay; format: functional; details: OVCAR-3, 48 h, read-out: Activity
[16] = Cytotoxicity against human OVCAR4 cells assessed as cell growth at 5 uM after 48 hrs by SRB assay; format: functional; details: OVCAR-4, 48 h, read-out: Activity
[17] = Cytotoxicity against human MOLT4 cells assessed as cell growth at 50 uM after 48 hrs by SRB assay; format: functional; details: MOLT-4, 48 h, read-out: Activity
[18] = Cytotoxicity against human SF268 cells assessed as cell growth at 50 uM after 48 hrs by SRB assay; format: functional; details: SF-268, 48 h, read-out: Activity
SK-MEL-2 [19] = test: Cytotoxicity against human SK-MEL-2 cells assessed as cell growth at 5 uM after 48 hrs by SRB assay; format: functional; details: SK-MEL-2, 48 h, read-out: Activity
SK-MEL-5 = test: Cytotoxicity against human SK-MEL-5 cells assessed as cell growth at 50 nM after 48 hrs by SRB assay; format: functional; details: SK-MEL-5, 48 h, read-out: Activity
NCI-H322M = test: Cytotoxicity against human NCI-H322M cells assessed as cell growth at 5 nM after 48 hrs by SRB assay; format: functional; details: read-out: Activity
[20] = Cytotoxicity against human OVCAR5 cells assessed as cell growth at 5 uM after 48 hrs by SRB assay; format: functional; details: OVCAR-5, 48 h, read-out: Activity
MDA-MB-435 = test: Cytotoxicity against human MDA-MB-435 cells assessed as cell growth at 50 uM after 48 hrs by SRB assay; format: functional; details: MDA-MB-435, 48 h, read-out: Activity
Malme-3M [21] = test: Cytotoxicity against human MALME-3M cells assessed as cell growth at 50 nM after 48 hrs by SRB assay; format: functional; details: read-out: Activity
[22] = Metabolic stability in human liver microsomes assessed as remaining parent compound level at 10 uM measured immediately after compound addition in absence of NAPDH by LC/MS analysis; format: ADME; details: read-out: Drug metabolism
MDA-MB-468 = test: Cytotoxicity against human MDA-MB-468 cells assessed as cell growth at 0.5 uM after 48 hrs by SRB assay; format: functional; details: MDA-MB-468, 48 h, read-out: Activity
[23] = Cytotoxicity against human COLO205 cells assessed as cell growth at 5 uM after 48 hrs by SRB assay; format: functional; details: COLO 205, 48 h, read-out: Activity
[24] = Cytotoxicity against human HCT116 cells assessed as cell growth at 50 nM after 48 hrs by SRB assay; format: functional; details: HCT-116, 48 h, read-out: Activity
M14 [25] = test: Cytotoxicity against human M14 cells assessed as cell growth at 0.5 uM after 48 hrs by SRB assay; format: functional; details: M14, 48 h, read-out: Activity
A498 = test: Cytotoxicity against human A498 cells assessed as cell growth at 0.5 uM after 48 hrs by SRB assay; format: functional; details: A498, 48 h, read-out: Activity
[26] = Cytotoxicity against human LOXIMVI cells assessed as cell growth at 50 uM after 48 hrs by SRB assay; format: functional; details: LOX IMVI, read-out: Activity
[27] = Cytotoxicity against human SW620 cells assessed as cell growth at 50 uM after 48 hrs by SRB assay; format: functional; details: SW-620, 48 h, read-out: Activity
EKVX = test: Cytotoxicity against human EKVX cells assessed as cell growth at 5 uM after 48 hrs by SRB assay; format: functional; details: read-out: Activity
[28] = Cytotoxicity against human SNB75 cells assessed as cell growth at 5 nM after 48 hrs by SRB assay; format: functional; details: SNB-75, 48 h, read-out: Activity
[29] = Cytotoxicity against human HCT15 cells assessed as cell growth at 50 nM after 48 hrs by SRB assay; format: functional; details: HCT-15, 48 h, read-out: Activity
[30] = Cytotoxicity against human SW620 cells assessed as cell growth at 0.5 uM after 48 hrs by SRB assay; format: functional; details: SW-620, 48 h, read-out: Activity

Question: Which results are given for C/C(=C(/c1ccc(O)cc1)c1ccc(OCCN2CCCC2)cc1)c1ccccc1?
Answer: growth at 0.01 µM (CCRF-CEM [1]): 110%; growth at 10 µM [2]: -19%; growth at 10 µM (NCI-H23): 29%; growth at 0.1 µM [3]: 99%; growth at 0.1 µM [4]: 95%; growth at 1 µM (786-0 [5]): 89%; growth at 10 µM (Malme-3M [6]): -77%; growth at 0.1 µM [7]: 101%; growth at 0.1 µM (SK-MEL-2 [8]): 103%; growth at 10 µM [9]: 35%; growth at 1 µM (T47D): 48%; growth at 10 µM (786-0 [10]): -57%; growth at 0.01 µM [11]: 88%; growth at 0.01 µM (NCI-H522): 88%; growth at 10 µM (A549): 4%; growth at 100 µM (M14 [12]): -96%; growth at 1 µM [13]: 81%

Question: Which results are given for CCCCCCCCCC(=O)Oc1ccc(/C(=C(/C)c2ccccc2)c2ccc(OCCN3CCCC3)cc2)cc1?
Answer: growth at 0.5 µM (KM12): 76%; growth at 0.005 µM (CCRF-CEM [14]): 95%; growth at 0.005 µM [15]: 108%; growth at 5 µM [16]: 78%; growth at 50 µM [17]: -53%; growth at 50 µM [18]: -72%; growth at 5 µM (SK-MEL-2 [19]): 100%; growth at 0.05 µM (SK-MEL-5): 102%; growth at 0.005 µM (NCI-H322M): 94%; growth at 5 µM [20]: 91%; growth at 50 µM (MDA-MB-435): -100%; growth at 0.05 µM (Malme-3M [21]): 98%; remaining at 0 h, 10 µM [22]: 82%; growth at 0.5 µM (MDA-MB-468): 69%; growth at 5 µM [23]: 79%; growth at 0.05 µM [24]: 95%; growth at 0.5 µM (M14 [25]): 42%; growth at 0.5 µM (A498): 49%; growth at 50 µM [26]: -100%; growth at 50 µM [27]: -97%; growth at 5 µM (EKVX): 74%; growth at 0.005 µM [28]: 88%; growth at 0.05 µM [29]: 90%; growth at 0.5 µM [30]: 88%
